Consider one molecule from patent publication US20070286896A1, “Therapeutic or Diagnostic Drug for Inflammatory Disease Comprising Targeting Liposome” (NATIONAL INSTITUTE OF ADVANCED INDUSTRIAL SCIENCE AND …, priority 2003, published 2007).

Holding throughout (type): in vivo, DBA/1J mice
Experiment [1] has as its system Collagen type II induced arthritis (CIA) mice. As to the kind of experiment: Test for determining proper amount of prednisolone phosphate for RA mice. Conditions: Day 28 to Day 46.
Experiment [2] shares this test system. Briefly: Medical treatment of RA mice by oral administration of DDS liposomes. Conditions: oral three times/week Day 28 to Day 39; free Pred 100 μg, L-Pred 10 μg per administration. The procedure:
(§1) A water solution of the collagen and the CFA were mixed at a volume ratio of 2:1 to prepare an emulsion containing 200 μg of the collagen per 100 μL thereof. This emulsion was subcutaneously injected into the bottom of the tails of the mice (Day 0). After 21 days from the administration (Day 21), a water solution of the collagen and the IFA were mixed at a volume ratio of 2:1 to prepare an emulsion containing 200 μg of the collagen per 100 μL thereof, and this emulsion was subcutaneously injected again into the bottom of the tails of the mice.
(§2) After the injection, the limbs of the mice were observed on a three times/week basis, and inflammation was quantitatively determined by giving it a point according to the following criteria: for each limb, normal: 0 point, mild inflammation or redness: 1 point, severe redness, dilatation, or reduced use: 2 points, and deformed palm, plantar region, or joint region: 3 points (0 point lowest, 12 points highest, per mouse). Inflammatory activity (hereinafter, referred to as IA) was determined by applying the obtained point to the following formula: Inflammatory activity (%)=points of all limbs/12×100.
Mice with arthritis received medical treatment by orally administering a therapeutic drug to the mice. The oral administration was performed on a three times/week basis for a period from Day 28 to Day 39. […]

Experiment [3] shares this test system. Briefly: Medical treatment of RA mice by intravenous administration of DDS liposomes. The procedure: as §1, §2
Mice with arthritis received medical treatment by injecting a therapeutic drug to the tail veins thereof. The intravenous injection was performed on a twice/week basis for a period from Day 28 to Day 46. […]

Regarding `C[C@]12C=CC(=O)C=C1CC[C@@H]1[C@@H]2[C@@H](O)C[C@@]2(C)[C@H]1CC[C@]2(O)C(=O)COP(=O)(O)O` [prednisolone phosphate], in experiment [1] (intravenous 250 μg/injection (500 μg/week)), the “IA compared with control group” value is listed as “No significant difference”. Also, the “rise in IA / progression of the inflammation” value in experiment [1] (intravenous 500 μg/injection (1000 μg/week)) is “a rise in IA was not observed, and the progression of the inflammation was suppressed”. In addition, the “difference in IA among the control, free Pred (until Day 32) and L-Pred groups” value in experiment [2] is “no significant difference”. For the same molecule, in experiment [3] (intravenous 100 μg/injection (200 μg/week) prednisolone phosphate, Day 37), the “Inflammatory activity (IA)” value was “approximately 50%”. The “IA compared with other groups / progression of inflammation” value in experiment [3] (intravenous twice/week Day 28 to Day 46, free Pred 100 μg/injection, liposomes 10 μg/injection) was “no evident difference was observed between the IA of the free Pred group and the IA of the Control group”.
